Data published in patent publication EP4186364A1, “ANTIMICROBIAL TREATMENT OF SUBSTRATES” (Livinguard AG, priority 2021, dated 2023).
In brackets after ≈: the same amount, converted by molar mass. Where two headings read alike, the source gives them in different places.

How the values were obtained:
[1] = tested on: Escherichia coli (E.coli); assay: Antimicrobial activity of a METAC solution (optical density OD600); type: cell-based
[2] = at 20 °C; Column elution; cited from earlier work
[3] = at 20 °C; Flask method; cited from earlier work

SMILES	METAC required to stop E.coli growth ([1]; METAC in solution, OD600, Fig. 8b)	antimicrobial activity ([1]; METAC monomer as such, not bound to a substrate)	water solubility [2]	water solubility [3]
C=C(C)C(=O)OCC[N+](C)(C)C.[Cl-] [METAC, [2-(methacryloyloxy)ethyl]trimethylammonium chloride]	40 mg/mL	low antimicrobial activity	–	–
Cc1cc(C)c(C(=O)P(=O)(c2ccccc2)c2ccccc2)c(C)c1 [TPO, diphenyl(2,4,6-trimethylbenzoyl)phosphine oxide]	–	–	11.9 µg/mL (≈ 34.2 µM)	3.3 µg/mL (≈ 9.47 µM)
